Where two headings read alike, the source gives them in different places.
Experiments:
[1] = test system: mut-KRAS NSCLC cell lines; assay: Screening against NSCLC cell line panel, mut-KRAS lines; assay type: cell-based; details: for inhibition of mut-KRAS cell growth (in words): FIG. 3 and FIG. 5
Method: (§1) The isogenic KRAS lines harboring G12D, G12C, and G12V were obtained from Horizon Discovery labs on a one year lease. These cells were cultured in McCoys media with 10% FBS to 80% confluency. Cells were then released from flasks via trypsinization and plated into 96-well plates at an initial density range of 2000 cells per well. Cells were allowed 24 hours to attach, and then the agents were added to the culture media at a range of concentrations from 0-100 μM. Cells were incubated for 72 hours with the drugs, and then viability was assessed using an MTS viability assay. Cells were exposed to MTS reagent (Promega) dissolved in PBS (Hyclone) at a concentration of 200 μL reagent/mL media for 2 hours. Absorbance was then read at 490 nm, and viability was expressed as a percentage normalized between the negative control (no cells plated) and the condition of cells with no drug added (100% viability) normalized as the upper limit of viability.
(§2) Our panel of 30 cell lines and an extensive characterization were obtained from Dr. John Minna (UTSW). All cell lines were cultured in RPMI 1640 with 10% FBS. Cells were treated with concentrations of agents at concentrations 0.01 to 50 μM and evaluated as described above. IC50's were determined using Excelfit.

wt-KRAS NSCLC cell lines = assay: Screening against NSCLC cell line panel, wt-KRAS lines; assay type: cell-based; details: for inhibition of wt-KRAS cell growth (in words): FIG. 5
Method: as §1, §2

AKT1 PH-domain = molecular target: T1, AKT1 PH-domain (Homo sapiens, UniProt P31749); assay: SPR binding assay (Biacore T100), AKT1 PH-domain; details: for AKT KD: Table 7, curated diversity set; for Kd: read-out: AKT KD
T1 construct: The PH-domain His-fusion proteins (CNK1 and AKT1) were expressed and immobilized on a NTA chip; made in house
Method: (§3) All interaction analyses were done with a Biacore T100 Control Software v3.2, and BIAevaluation v4.1 analysis software (Biacore). The PH-domain His-fusion proteins (CNK1 and AKT1) were expressed and immobilized on a NTA chip to a level of 10,000 response units or less. Small molecule analytes at concentrations ranging from 50 μM to 0.010 μM were injected at a high flow rate (30 μL/min) DMSO concentrations in all samples and running buffer were 1-5% (v/v).
A commercially available docking package, GOLD (GOLD [3.2], CCDC: Cambridge, UK, 2007) was used to evaluate the docking of compounds 1-7 into the binding pocket, see e.g. Table 5. Other docking was performed using modeling algorithms with state-of-the-art commercial drug discovery software (Schrodinger suite). GLIDE was chosen as the docking algorithm used to select and optimize compounds, providing a GlideScore as a rough estimate of binding affinity that was used to rank and select the best compounds. Additionally, ligand-based approaches provided an alternative to structure based drug discovery. Ligand-based virtual screening methodologies can take into account shape and electrostatics (like ROCS) and the pharmacophoric features (acceptor, donor, hydrophobic, aromatic, etc.) of its functional groups. Inositol tetraphosphate (IP4) binding to the PH-domain of CNKSR1 provided a good starting point for shape screening. Both structure-based and ligand-based approaches were used to find novel compounds (Table 7) and to refine and improve lead compounds (Tables 8, and 9). SPR interaction analyses for Compounds 1 through 7 were performed with a Biacore 2000, using Biacore2000 Control Software v3.2 and BIAevaluation v4.1 analysis software (Biacore) as described in Mol Cancer Ther 7:2621 (2008). SPR interaction analyses of all other compounds was undertaken using a Biacore T100 with Control and Evaluation software kit.

[2] = test system: H226 (KRAS wildtype cell line); assay: Proliferation Assay H226; assay type: cell-based; details: Homo sapiens, NCI-H226, n = 1
Method: as §1, §2

[3] = Mouse pharmacokinetics (iv); assay type: in vivo; details: for clearance: in vivo
[4] = test system: H1975 (KRAS wildtype cell line); assay: Proliferation Assay H1975; assay type: cell-based; details: Homo sapiens, NCI-H1975, n = 1
Method: as §1, §2

[5] = test system: H1373 (KRAS mutant cell line); assay: Proliferation Assay H1373; assay type: cell-based; details: Homo sapiens, NCI-H1373, N = 2 experiments
Method: as §1, §2

[6] = test system: A549 (KRAS mutant cell line); assay: Proliferation Assay A549; assay type: cell-based; details: Homo sapiens, N = 2 experiments
Method: as §1, §2

CNK1 PH-domain (CNKSR1) = molecular target: T2, CNK1 PH-domain (CNKSR1) (Homo sapiens, UniProt Q969H4); assay: SPR binding assay (Biacore T100), CNK1 PH-domain; details: for Surface Plasmon Resonance CNKSR1 binding (RU max) / Surface Plasmon Resonance CNKSR1 stability (RU max post-injection): date 12 09 13
T2 construct: The PH-domain His-fusion proteins (CNK1 and AKT1) were expressed and immobilized on a NTA chip; made in house
T2 sequence (Q969H4 403-502 limits assumed): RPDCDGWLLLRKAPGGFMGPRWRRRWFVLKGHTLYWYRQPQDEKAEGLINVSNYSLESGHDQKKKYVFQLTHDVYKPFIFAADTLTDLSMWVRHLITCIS
Method: as §3
Other docking was performed using modeling algorithms with state-of-the-art commercial drug discovery software (Schrodinger suite). […] Additionally, ligand-based approaches provided an alternative to structure based drug discovery. Ligand-based virtual screening methodologies can take into account shape and electrostatics (like ROCS) and the pharmacophoric features (acceptor, donor, hydrophobic, aromatic, etc.) of its functional groups. […] SPR interaction analyses of all other compounds was undertaken using a Biacore T100 with Control and Evaluation software kit.

[7] = Table 7, read-out: IC50 mut-KRAS
[8] = Table 7, read-out: IC50 WT-KRAS
[9] = Table 6, mean of 3 mut-KRAS lines, read-out: NSCL cell line cytotoxicity IC50 mut-KRAS
[10] = Table 6, mean of 3 wt-KRAS lines, read-out: NSCL cell line cytotoxicity IC50 wt-KRAS
[11] = Table 5, read-out: Mean IC50 mut-KRAS

T1 sequence (P31749 5-108 limits assumed): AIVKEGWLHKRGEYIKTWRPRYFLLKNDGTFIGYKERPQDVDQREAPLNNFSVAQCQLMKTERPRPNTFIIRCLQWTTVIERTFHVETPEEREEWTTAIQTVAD

Compound	IC50 [2] [µM]	IC50 [4] [µM]	IC50 [5] [µM]	IC50 [6] [µM]	Surface Plasmon Resonance CNKSR1 binding (RU max) (CNK1 PH-domain (CNKSR1)) [RU * 100/Da]	Surface Plasmon Resonance CNKSR1 stability (RU max post-injection) (CNK1 PH-domain (CNKSR1)) [RU * 100/Da]	Kd (AKT1 PH-domain; Table 8) [µM]	also measured
O=C(O)COc1cc(OCC(=O)O)c2c3c(c(=O)oc2c1)CCCC3 [Compound 76]								IC50 [1, 7]: > 100 µM; IC50 (wt-KRAS NSCLC cell lines; [8]): > 100 µM; AKT KD (AKT1 PH-domain): Bound
Cc1ccc(-c2csc(Cn3nc(CC(=O)N4CCN(C)CC4)c4ccccc4c3=O)n2)cc1 [Compound 123]								t1/2β [3]: 327 min; clearance [3]: 31 mL/min/kg
Cc1ccc(-c2csc(Cn3nc(Cc4nccs4)c4ccccc4c3=O)n2)cc1 [Compound 10]								t1/2β [3]: 245 min; clearance [3]: 119 mL/min/kg; inhibition of mut-KRAS cell growth (in words) [1]: inhibited the growth; selectivity for mut-KRAS cells compared to wt-KRAS cells ([1]; NSCLC cell lines): approximately two fold; IC50 [1, 9]: 34 µM; Kd (CNK1 PH-domain (CNKSR1); Table 6, read-out: CNKS KD): 4120 nM; inhibition of wt-KRAS cell growth (in words) (wt-KRAS NSCLC cell lines): also inhibited; IC50 (wt-KRAS NSCLC cell lines; [10]): 46 µM
Cc1ccc(-c2nc(SCC(=O)O)c3c(=O)n(C)c(=O)n(C)c3n2)cc1 [Compound 61]								IC50 [1, 7]: > 100 µM; IC50 (wt-KRAS NSCLC cell lines; [8]): > 100 µM
CSc1sc(C#N)c(C)c1-c1ccn(S(=O)(=O)c2ccc(Cl)cc2)n1 [Compound 117]								IC50 [1, 11]: 21.9 ± 5.7 µM
O=C(O)CSc1cc(NS(=O)(=O)c2cccs2)c2ccccc2c1O [Compound 12]								inhibition of mut-KRAS cell growth (in words) [1]: more potently than compound 7 or its analogs; IC50 [1, 7]: 17 µM; inhibition of wt-KRAS cell growth (in words) (wt-KRAS NSCLC cell lines): more potently than compound 7 or its analogs; IC50 (wt-KRAS NSCLC cell lines; [8]): 12 µM; AKT KD (AKT1 PH-domain): Bound
Cc1ccc(-c2csc(Cn3nc(CC4OCCCO4)c4ccccc4c3=O)n2)cc1 [Compound 9]	> 100	100	> 100	42				t1/2β [3]: 260 min; clearance [3]: 133 mL/min/kg; IC50 [1, 9]: 25 µM; Kd (CNK1 PH-domain (CNKSR1); Table 6, read-out: CNKS KD): 26 nM; IC50 (wt-KRAS NSCLC cell lines; [10]): 55 µM; Kd (AKT1 PH-domain; Table 6): 66.3 µM
O=C(CSc1nnnn1-c1cccc(Cl)c1)c1cc2ccccc2o1 [Compound 121]								IC50 [1, 11]: 46.7 ± 3.3 µM
N#Cc1cnn(-c2ccccc2)c1NC(=O)CSc1nnc(-c2ccco2)n1-c1ccc(F)cc1 [Compound 122]								IC50 [1, 11]: > 50 µM
O=C(O)c1ccc2c(c1)C1C=CCC1C(C(=O)O)N2 (stereo not drawn) [Compound 56]								IC50 [1, 7]: > 100 µM; IC50 (wt-KRAS NSCLC cell lines; [8]): > 100 µM
O=S(=O)(Nc1n[nH]c(SCc2ccc(Cl)cc2)n1)c1ccc(-c2ccccn2)s1 [Compound 118]								IC50 [1, 11]: 49.3 ± 0.6 µM
Cc1ccc(-c2csc(Cn3nc(CC4OCC(=O)O4)c4ccccc4c3=O)n2)cc1 (stereo not drawn) [Compound 11]								inhibition of mut-KRAS cell growth (in words) [1]: inhibited the growth; IC50 [1, 9]: 45 µM; Kd (CNK1 PH-domain (CNKSR1); Table 6, read-out: CNKS KD): 270 nM; inhibition of wt-KRAS cell growth (in words) (wt-KRAS NSCLC cell lines): also inhibited; IC50 (wt-KRAS NSCLC cell lines; [10]): 56 µM; Kd (AKT1 PH-domain; Table 6): 2.53 µM
Cn1c(Cc2nn(C)c(=O)c3ccccc23)nnc1SCC(=O)c1ccc(Cl)cc1Cl [Compound 119]								IC50 [1, 11]: > 50 µM
Cc1ccc(-c2csc(Cn3nc(CC=O)c4ccccc4c3=O)n2)cc1 [Compound 79]								t1/2β [3]: 35 min; clearance [3]: 30 mL/min/kg; Kd (CNK1 PH-domain (CNKSR1); Table 6, read-out: CNKS KD): 4200 nM

Further lines, with some results ahead:

IC50 [2] [µM]	IC50 [4] [µM]	IC50 [5] [µM]	IC50 [6] [µM]	Surface Plasmon Resonance CNKSR1 binding (RU max) (CNK1 PH-domain (CNKSR1)) [RU * 100/Da]	Surface Plasmon Resonance CNKSR1 stability (RU max post-injection) (CNK1 PH-domain (CNKSR1)) [RU * 100/Da]	Kd (AKT1 PH-domain; Table 8) [µM]	Compound	also measured
60	60	45	25	0.224	−0.065		CCNC(=O)Cc1nn(Cc2nc(-c3ccc(C)cc3)cs2)c(=O)c2ccccc12 [Compound 78]	t1/2β [3]: 28 min; clearance [3]: 34 mL/min/kg; Kd (CNK1 PH-domain (CNKSR1); Table 6, read-out: CNKS KD): 650 nM; Kd (AKT1 PH-domain; Table 6): 2.53 µM
> 100	> 100	> 100	> 100	1.026	1.515	> 500	CCOC(=O)CCc1cc(NS(=O)(=O)c2cccs2)c2c(c1OC)OCO2 [Compound 85, ethyl 3-(4-methoxy-7-(thiophene-2-sulfonamido)benzo[d][1,3]dioxol-5-yl)propanoate]	Kd (CNK1 PH-domain (CNKSR1); Table 8, read-out: CNK KD): > 500000 nM
> 100	> 100	> 100	> 100	1.527	0.168	140	CCOC(=O)/C=C/c1c(O)c(O)cc(N)c1SC [Compound 109, ethyl (2E)-3-[3-amino-5,6-dihydroxy-2-(methylsulfanyl)phenyl]prop-2-enoate]	Kd (CNK1 PH-domain (CNKSR1); Table 8, read-out: CNK KD): 19200 nM
> 100	> 100	> 100	> 100	−0.807	−0.197	> 500	CCOC(=O)/C=C/c1cc(NS(=O)(=O)c2cccs2)c2c(c1OC)OCO2 [Compound 86, (E)-ethyl 3-(4-methoxy-7-(thiophene-2-sulfonamido)benzo[d][1,3]dioxol-5-yl)acrylate]	Kd (CNK1 PH-domain (CNKSR1); Table 8, read-out: CNK KD): 123000 nM
65	> 100	28	27	0.217	0.032	178	CSc1c(N)cc(O)c(O)c1/C=C/C(=O)O [Compound 110, (2E)-3-[3-amino-5,6-dihydroxy-2-(methylsulfanyl)phenyl]prop-2-enoic acid]	
75	> 100	82	60	2.132	2.049	4.8	COc1cc(NS(=O)(=O)c2cccs2)c(SC)c(/C=C/C(=O)O)c1O [Compound 104, (2E)-3-[2-hydroxy-3-methoxy-6-(methylsulfanyl)-5-(thiophene-2-sulfonamido)phenyl]prop-2-enoic acid]	Kd (CNK1 PH-domain (CNKSR1); Table 8, read-out: CNK KD): 1560 nM
70	> 100	58	55	−0.928	0.511	13.5	CSc1c(NS(=O)(=O)c2cccs2)cc(O)c(O)c1/C=C/C(=O)O [Compound 106, (2E)-3-[2,3-dihydroxy-6-(methylsulfanyl)-5-(thiopliene-2-sulfonamido)phenyl]prop-2-enoic acid]	Kd (CNK1 PH-domain (CNKSR1); Table 8, read-out: CNK KD): 614 nM
70	> 100	42	100	−0.676	−0.197	6.22	CCOC(=O)/C=C/c1c(O)c(O)cc(NS(=O)(=O)c2cccs2)c1SC [Compound 105, ethyl (2E)-3-[2,3-dihydroxy-6-(methylsulfanyl)-5-(thiophene-2-sulfonamido)phenyl]prop-2-enoate]	Kd (CNK1 PH-domain (CNKSR1); Table 8, read-out: CNK KD): 2860 nM

Source: US9340532B2, “Methods and compositions for inhibiting CNKSR1” (PHUSIS THERAPEUTICS, INC., priority 2012, dated 2016)
